Laboratory results reported in PMC8409088 (ChemistryOpen, 2020).
Counter-ions that a name gives are not always drawn.

Biological target: glutaminyl cyclase (QC, QPCT) (Homo sapiens, UniProt Q16769)
Assay: glutamic dehydrogenase-coupled assay, NADH absorbance at […] nm
Assay type: biochemical

glutaminyl cyclase (QC, QPCT), sequence (Q16769 33-361): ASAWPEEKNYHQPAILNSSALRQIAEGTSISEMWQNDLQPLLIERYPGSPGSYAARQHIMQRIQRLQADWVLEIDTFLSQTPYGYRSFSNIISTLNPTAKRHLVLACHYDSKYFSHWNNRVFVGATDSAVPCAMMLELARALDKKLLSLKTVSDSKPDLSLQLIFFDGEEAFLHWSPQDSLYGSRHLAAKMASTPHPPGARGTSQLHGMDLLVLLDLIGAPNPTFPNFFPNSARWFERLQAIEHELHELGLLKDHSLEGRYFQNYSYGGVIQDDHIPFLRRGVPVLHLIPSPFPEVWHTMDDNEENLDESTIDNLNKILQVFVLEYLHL

| SMILES | Ki |
| --- | --- |
| Cc1cnc(C(=O)O)c[n+]1[O-] [Acipimox] | 6.23 ± 0.85 mM |
| O=C(/C=C/c1cccc(S(=O)(=O)Nc2ccccc2)c1)NO [Belinostat (PXD101)] | 2.98 ± 0.67 mM |
| Cc1cccc(Cc2c[nH]cn2)c1C [Detomidine HCl] | 2.58 ± 0.28 mM |
| CC[C@@H]1C(=O)OC[C@@H]1Cc1cncn1C [Pilocarpine HCl] | 13.2 ± 7.27 mM |
